Consider 6 molecules from patent US7045495B2 (Sloan-Kettering Institute for Cancer Research, priority 1996, dated 2006).

Where two headings read alike, the source gives them in different places.

In assay [1] the test system is SK-GT-5 cells. The assay can be described thus: apoptosis by quantitative fluorescent microscopy (QFM), Hoechst-33258 staining. Format: cell-based, human. To be noted: FIG. 4: safingol 50 μM and/or PMA 1 ng/ml for 1 hour, then MMC 5 μg/ml or no drug 24 hours; MMC alone 24 hours. The protocol:
(§1) Apoptosis was measured by two different methods: (i) Quantitative fluorescent microscopy (QFM) of nuclear changes induced by apoptosis, as determined by bisbenzimide trihydrochloride (Hoescht-33258) staining of nuclear chromatin (15), and (ii) a terminal deoxynucleotidyl transferase (TdT) assay that labels the 3′-OH ends of DNA fragments produced in apoptotic cells (16). […] MMC was diluted in water. A stock safingol solution was constituted in DMSO and was subsequently diluted at least 1:100 in media for all experiments. […] For QFM determinations, the cells were fixed in 3% paraformaldehyde and incubated at room temperature for 10 minutes. The fixative was removed and the cells were washed with 1×PBS, resuspended in 20 μl 1×PBS containing only 8 μg/ml of bisbenzimide trihydrochloride (Hoechst #33258), and incubated at room temperature for 15 minutes. Aliquots of the cells (10 μl) were placed on glass slides coated with 3-amino-propyl-triethoxysilane, and duplicate samples of 500 cells each were counted and scored for the incidence of apoptotic chromatin condensation using an Olympus BH-2 fluorescence microscope equipped with a BH2-DM2U2UV Dich. Mirror Cube filter (Olympus, Lake Success, N.Y.). For the TdT assays, the ApopTag Kit (Oncor, Gaithersburg, Md.) was used. This method employs a fluoresceinated antidigoxigenin antibody directed against nucleotides of digoxigenin-11-dUTP (d-dUTP) which are catalytically added to the 3-ends fragmented DNA by TdT. Briefly, 1–2×10^6 cells were washed and fixed with 1% paraformaldehyde. The fixed cells were incubated in a reaction mixture containing TdT and d-dUTP for 30 minutes at 37° C. Stop/wash buffer was added, and the cells were resuspended in 100 μl of fluorescinated anti-digoxigenin antibody for 30 minutes at room temperature. The cells were then washed with 0.1% Triton X-100 and counterstained with propidium iodide (PI) solution. Green (d-dUTP labeled DNA strand breaks) and red (PI staining for total DNA content) fluorescence of individual cells were measured on a FACScan flow cytometer (Becton Dickinson, San Jose, Calif.). The resulting bivariate plots enabled the detection of apoptotic events within the cell cycle. The R1 cursor was set using the control specimen to define normal levels of green fluorescence (i.e., basal levels of apoptosis). Cells with fluorescence above the R, cursor were considered apoptotic. The data from 10,000 cells were collected and analyzed using CellFit and LYSYS software (Becton Dickinson).
For the QFM duplicate samples of 500 cells each were counted and scored for the incidence of apoptotic chromatin condensation using an Olympus BH-2 fluorescence microscope.

Assay [2] concerns MKN-74 cells. Briefly: apoptosis by QFM, Hoechst-33258 staining. Format: cell-based, human. To be noted: for induction of apoptosis (condensed chromatin, 400 cells): MKN-74, UCN-01 7.5 to 10 μM; for Percent Apoptosis: 24 h continuous (single drug) or concomitant, flavopiridol 300 nM, paclitaxel 50 μM, carboplatin. The protocol:
as §1
Apoptosis was again measured by QFM staining.
(§2) Induction of apoptosis was estimated by counting the frequency of condensed nuclear chromatin with Hoechst-33258 stain in duplicate samples of 400 cells.
For these studies apoptosis was measured by quantitative fluorescent microscopy (QFM) determination with bisbenzimide trihydrochloride stain (Hoescht-33258) for condensed nuclear chromatin characteristic of apoptotic cells.
For QFM determinations 500 cells were counted and scored for the incidence of apoptotic chromatin changes under an Olympus BH-2 fluorescence microscope in duplicate samples, ±SD, using a BH2-DM2U2UV Dich. Mirror Cube filter.
To study this further applicants elected to examine five bis-indolylmaleimides with various potencies against PKC. […] The induction of apoptosis was estimated by counting the frequency of condensed nuclear chromatin with Hoechst-33258 stain in duplicate samples of 400 cells.

The test system of assay [3] is PKC. The following applies: cited from earlier work.
The subject of assay [4] is SK-GT-2 cells. Briefly: apoptosis by QFM, Hoechst-33258 staining. Format: cell-based, human. To be noted: 24 hours; for percentage of cells undergoing apoptosis (QFM): MMC 5.0 μg/ml. The method, then: (i) Safingol enhances MMC-induced apoptosis: SK-GT-5 cells, which have a mutated p53 gene (9), were treated with safingol in the presence or absence of MMC for 24 hours. For determination of apoptosis SK-GT-5 cells were treated according to one of several conditions: (i) no drug (control) for 24 hours, (ii) Safingol alone (50 μM) for 24 hours. (This concentration represents the highest non-toxic dose of safingol for the SK-GT-5 cells, as determined by cell proliferation studies, and slightly exceeds the safingol concentration (30 μM) which inhibits PKC enzyme activity by 50% in vitro.), (iii) Mitomycin-C alone (2.5 μg/ml) for 24 hours, (iv) Mitomycin-C alone (5 μg/ml) for 24 hours, (v) the combination of safingol (50 μM) and Mitomycin-C (2.5 μg/ml) for 24 hours, (vi) the combination of safingol (50 μM) and Mitomycin-C (5 μg/ml) for 24 hours. Apoptosis was measured by quantitative fluorescent microscopy (QFM) of nuclear changes induced by apoptosis, as determined by bisbenzimide trihydrochloride (Hoescht-33258) staining of condensed nuclear chromatin (3,5). For the QFM duplicate samples of 500 cells each were counted and scored for the incidence of apoptotic chromatin condensation using an Olympus BH-2 fluorescence microscope.
(ii) UCN-01 enhances MMC-induced apoptosis: SK-GT-2 cells, which have a mutation in p53, were treated with increasing concentrations of UCN-01 in the presence or absence of a fixed dose of MMC for 24 hours.
Both UCN-01 and Flavo inhibit PKC. These drugs are cytotoxic to tumor cells and have been reported to induce apoptosis. […] In order to test this hypothesis we elected to treat gastric cancer cells, MKN-74 and SK-GT-2, as well as breast cancer cells, MDA-MB-468, with UCN-01 (7.5 to 10 μM) or Flavo (300 nM) in the presence or absence of MMC (5 μg/ml) or Taxol (50 μM) for 24 hours. Induction of apoptosis was estimated by counting the frequency of condensed nuclear chromatin with Hoechst-33258 stain in duplicate samples of 400 cells.

Assay [5] has as its system MDA-MB-468 breast cancer cells. The assay can be described thus: apoptosis by QFM, Hoechst-33258 staining. Format: cell-based, human. To be noted: 24 hours. The method, then: PRELIMINARY STUDIES. […] Apoptosis was measured by quantitative fluorescent microscopy (QFM) of nuclear changes induced by apoptosis, as determined by bisbenzimide trihydrochloride (Hoescht-33258) staining of condensed nuclear chromatin (24). For the QFM duplicate samples of 500 cells each were counted and scored for the incidence of apoptotic chromatin condensation using an Olympus BH-2 fluorescence microscope.
Applicants also tested the PKC inhibitor UCN-01 (27) which is currently in phase I clinical trial at the NCI. In contrast to safingol, which inhibits PKC by binding to its regulatory domain, UCN-01 inhibits PKC at its catalytic domain. Therefore, assessment of the effect of UCN-01 on inducing apoptosis in combination with MMC on MDA-MB-468 was also performed. The QFM method to quantitate apoptosis was again used. The conditions tested were identical to those described above for safingol except UCN-01 (1 μM) was substituted for safingol in all the conditions.
as §2

Assay [6] relates to MKN-74. Briefly: cell viability, trypan blue dye exclusion. The following applies: 24 hours, single drug or concomitant; bryostatin 1 μM, Mitomycin-C 1 μg/ml, Taxol 50 μM, Cisplatin 50 μM. Format: cell-based, human. The source says:
Recently our laboratory has studied the effects of combining bryostatin with chemotherapy both in vitro and in vivo against solid tumors. For our in vitro studies, we have been using the human gastric cancer cell line MKN-74. Cytotoxicity has been examined both by cell viability assays using trypan blue dye exclusion assays and by the induction of apoptosis using quantitative fluorescent microscopy.

Assay [7] concerns mammary carcinomas. The assay can be described thus: tumor size in mice bearing mammary carcinomas. Type of assay: in vivo. To be noted: for increase in tumor size by day #6: bryostatin 60 μg/kg followed in 12 hours by Mitomycin-C 3 μg/kg or Taxol 50 μg/kg, preliminary.
The subject of assay [8] is metastatic breast cancer. To be noted: cited from earlier work.
In assay [9] the test system is esophageal carcinoma. To be noted: cited from earlier work.

On to `CCCCCCCCCCCCCC(=O)O[C@@H]1[C@@H](C)[C@@]2(O)[C@@H](C=C(CO)C[C@]3(O)C(=O)C(C)=C[C@@H]23)[C@@H]2C(C)(C)[C@]12OC(C)=O` [PMA, 3-phorbol 12-myristate 13-acetate], for which the “percentage of cells undergoing apoptosis (QFM)” value (from here on “percentage”) in assay [1] is recorded as “essentially no effect on inducing apoptosis”.
A word on the IC50: it is the point on the concentration scale where inhibition reaches its midpoint. For the molecule `CN(C)C[C@H]1CCn2c(c(C3=C(c4cn(C)c5ccccc45)C(=O)NC3=O)c3ccccc32)C1` [RO 32-0432], in assay [2] (24 hours, RO 32-0432 1 μM, MMC), the “percentage” value is reported as “essentially no effect on inducing apoptosis”. Moreover, in assay [2] (Ro 2 μM, MMC 1 μg/ml), the “percent induction of apoptosis, 6hrs” value is on record as 0.3%; the “percent induction of apoptosis, 12hrs” value was 1.5%; the “percent induction of apoptosis, 24hrs” value was 1.2%; the “percent induction of apoptosis, 48hrs” value amounted to 5.0%. In addition, the “percent induction of apoptosis, 72hrs” value in assay [2] (Ro 2 μM, MMC 1 μg/ml) amounted to 13%. Besides, the IC50 in assay [3] (Ro32-0432, read-out: IC50, PKC enzyme activity) was […].
On to `CN[C@@H]1C[C@H]2O[C@@](C)([C@@H]1OC)n1c3ccccc3c3c4c(c5c6ccccc6n2c5c31)C(=O)N[C@H]4O` [UCN-01, 7-OH-staurosporine], for which the “percentage” value in [4] (UCN-01 0.1 μM) is 1%±0%; in [4] (UCN-01 1 μM), 1%±0; in assay [4] (UCN-01 10 μM) it was 21%±1%. For the same molecule, the “induction of apoptosis (condensed chromatin, 400 cells)” value is reported as 18% ± 4 in assay [4] (UCN-01 7.5 to 10 μM, MMC 5 μg/ml); 10% ± 2 in [2] (24 hours, Taxol 50 μM); 20% ± 1 in assay [5] (MDA-MB-468, UCN-01 7.5 to 10 μM, MMC 5 μg/ml). The “induction of apoptosis (QFM)” value in assay [5] (FIG. 10, UCN-01 1 μM, MMC 5.0 μg/ml) is given as 20%±4. The “concentration range that inhibits PKC activity” value in assay [3] is “nanomolar concentrations”.
On to `CCC/C=C/C=C/C(=O)O[C@H]1/C(=C/C(=O)OC)C[C@H]2C[C@H]([C@@H](C)O)OC(=O)C[C@H](O)C[C@@H]3C[C@H](OC(C)=O)C(C)(C)[C@](O)(C[C@@H]4C/C(=C/C(=O)OC)C[C@H](/C=C/C(C)(C)[C@]1(O)O2)O4)O3` [bryostatin], for which, in assay [6], the “% of Cells Alive” value was 85%. Moreover, in [7], the “increase in tumor size by day #6” value came out at 80%. For the same molecule, the “tumor energy and pH (NMR)” value in assay [7] (first noted 12 to 24 hours after bryostatin) is “dose-dependent decrease in tumor energy and pH”.
With `N.N.O=C([O-])C1(C(=O)[O-])CCC1.[Pt+2]` [carboplatin], the “Percent Apoptosis” value in [2] (MMC 1 μg/ml) is 1%±1%; in assay [2] (MMC 1 μg/ml, listed as Carboplatin), 1% ± 1%.
As to `CC(=O)O[C@H]1C(=O)[C@@]2(C)[C@H]([C@H](OC(=O)c3ccccc3)[C@]3(O)C[C@H](OC(=O)[C@H](O)[C@@H](NC(=O)c4ccccc4)c4ccccc4)C(C)=C1C3(C)C)[C@]1(OC(C)=O)CO[C@@H]1C[C@@H]2O` [paclitaxel, Tax-11-en-9-one, 5 beta, 20-epoxy-1, 2 alpha, 4, 7 beta, 10 beta, 13 alpha-hexahydroxy-1,4, 10-diacetate, 2 benzoate 13-(alpha-phenylhippurate)], the “% of Cells Alive” value in assay [6] amounted to 93%. For the same molecule, the response rate in assay [8] (96 hour infusion, taxane resistant population) is on record as 286; in assay [8] (first line, 250 mg/m^2 over 3 hour infusion), 32%. The response rates in [8] (first chemotherapy, 24 hour infusion with or without G-CSF) is 56–62%. The “Percent Apoptosis” value was 5.5%±1 in [2] (MMC 1 μg/ml) and 6% ± 1% in assay [2] (MMC 1 μg/ml, listed as Paclitaxel). Besides, the “% APOPTOSIS” value in assay [2] (24 hours, FLAVO 300 nM, Taxol 50 μM, MMC 1 μg/ml, single drugs or in combination) is 9%. Further, the “percent induction of apoptosis, Concomitant” value in assay [2] (24 hours, FLAVO 300 nM, Taxol 50 μM, MMC 1 μg/ml, single drugs or together) is on record as 9% ± 1%. In addition, the “induction of apoptosis (condensed chromatin, 400 cells)” value in [2] (24 hours, Taxol 50 μM) was 2% ± 1. Besides, the “increase in tumor size by day #6” value in assay [7] was determined as 22%. The major responses in assay [9] (250 mg/m^2 by 24 hour infusion every 21 days with G-CSF, 51 patients) is listed as 32%. Further, the complete response in [9] (250 mg/m^2 by 24 hour infusion, 51 patients) is 2%. The median survival in assay [9] (in vivo) is listed as 13 months.
